Measurements taken from US20020114868A1, “Highly soluble and stable nutritional compositions containing calcium and magnesium” (priority 1999, published 2002).
Where two headings read alike, the source gives them in different places. Marks after values point to notes of the source that are not given here.

Settings: 3.4 g calcium equivalent in 8 ounces deionized water at 68° F

## CC(O)C(=O)[O-].O=C([O-])[C@H](O)[C@@H](O)[C@H](O)[C@H](O)CO.[Ca+2] [Gluconal ®, Calcium Gluconate Lactate]
Elapsed time 00:00.0 mm:ss.s
  Dissolution Rates as % of Maximum Solubility: 0%
Elapsed time 00:05.4 mm:ss.s
  Dissolution Rates as % of Maximum Solubility: 10%
Elapsed time 00:10.7 mm:ss.s
  Dissolution Rates as % of Maximum Solubility: 20%
Elapsed time 00:16.1 mm:ss.s
  Dissolution Rates as % of Maximum Solubility: 30%
Elapsed time 00:21.5 mm:ss.s
  Dissolution Rates as % of Maximum Solubility: 50%
Elapsed time 00:26.9 mm:ss.s
  Dissolution Rates as % of Maximum Solubility: 55%
Elapsed time 00:32.2 mm:ss.s
  Dissolution Rates as % of Maximum Solubility: 45%
Elapsed time 00:37.6 mm:ss.s
  Dissolution Rates as % of Maximum Solubility: 58%
Elapsed time 00:43.0 mm:ss.s
  Dissolution Rates as % of Maximum Solubility: 63%
Elapsed time 00:48.4 mm:ss.s
  Dissolution Rates as % of Maximum Solubility: 66%
Elapsed time 00:53.7 mm:ss.s
  Dissolution Rates as % of Maximum Solubility: 71%
Elapsed time 00:59.1 mm:ss.s
  Dissolution Rates as % of Maximum Solubility: 71%
Elapsed time 01:04.5 mm:ss.s
  Dissolution Rates as % of Maximum Solubility: 77%
Elapsed time 01:09.9 mm:ss.s
  Dissolution Rates as % of Maximum Solubility: 77%
Elapsed time 01:15.3 mm:ss.s
  Dissolution Rates as % of Maximum Solubility: 80%
Elapsed time 01:20.6 mm:ss.s
  Dissolution Rates as % of Maximum Solubility: 83%
Elapsed time 01:36.7 mm:ss.s
  Dissolution Rates as % of Maximum Solubility: 85%
Elapsed time 01:47.5 mm:ss.s
  Dissolution Rates as % of Maximum Solubility: 85%
Elapsed time 01:58.2 mm:ss.s
  Dissolution Rates as % of Maximum Solubility: 86%
Elapsed time 02:09.0 mm:ss.s
  Dissolution Rates as % of Maximum Solubility: 88%
Elapsed time 03:00.0 mm:ss.s
  Dissolution Rates as % of Maximum Solubility: 98%
Elapsed time 03:30.5 mm:ss.s
  Dissolution Rates as % of Maximum Solubility: 94%
Elapsed time 04:00.0 mm:ss.s
  Dissolution Rates as % of Maximum Solubility: 99%
Elapsed time 05:00.0 mm:ss.s
  Dissolution Rates as % of Maximum Solubility: 99%
Elapsed time 06:00.0 mm:ss.s
  Dissolution Rates as % of Maximum Solubility: 99%
Elapsed time 07:00.0 mm:ss.s
  Dissolution Rates as % of Maximum Solubility: 99%***
Elapsed time 101:26.0 mm:ss.s
  Dissolution Rates as % of Maximum Solubility: 86%
